From ChEMBL document CHEMBL6074627 (RSC Med Chem, 2024)
Calls of active or inactive are those of the source. The calls are words filed in the database; no cut-off is given here.

Key:
[1] = target: Replicase polyprotein 1ab (Severe acute respiratory syndrome coronavirus 2, UniProt P0DTD1); experiment: Inhibition of N-terminal 8His and SUMO tagged SARS-CoV-2 nsp14 N7-methyltransferase activity extracted from Escherichia coli using S-Adenosyl-L-methionine as substrate incubated for 30 mins by mass spectrometry
[2] = target: mRNA cap guanine-N(7) methyltransferase (Homo sapiens) (UniProt O43148); experiment: Inhibition of human RNMT at 25 uM
mRNA cap guanine-N(7) methyltransferase (Homo sapiens), sequence (O43148 whole entry): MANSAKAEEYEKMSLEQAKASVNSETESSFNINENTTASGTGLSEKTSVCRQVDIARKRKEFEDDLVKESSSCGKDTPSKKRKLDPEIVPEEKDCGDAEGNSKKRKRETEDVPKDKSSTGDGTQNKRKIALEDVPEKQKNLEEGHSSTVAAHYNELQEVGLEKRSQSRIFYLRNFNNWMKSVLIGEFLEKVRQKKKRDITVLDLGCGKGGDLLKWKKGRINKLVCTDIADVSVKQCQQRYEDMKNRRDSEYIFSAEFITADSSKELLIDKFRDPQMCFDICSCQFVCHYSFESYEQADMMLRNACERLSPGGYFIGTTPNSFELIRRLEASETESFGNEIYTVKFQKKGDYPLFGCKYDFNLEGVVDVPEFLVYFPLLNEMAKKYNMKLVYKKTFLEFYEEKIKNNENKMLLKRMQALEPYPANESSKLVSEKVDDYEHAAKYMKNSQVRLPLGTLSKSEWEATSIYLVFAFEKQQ

SARS-CoV-2 = experiment: Antiviral activity against SARS-CoV-2 hCoV-19/Czech Republic/NRL_6632_2/2020 infected in African green monkey Vero E6 cells assessed as reduction in viral growth […] by two-fold serial dilution assay; assay type: functional, organism-based; conditions: Severe acute respiratory syndrome coronavirus 2

Structure (SMILES)	IC50 [1]	inhibition [2]	Activity (SARS-CoV-2)
COC(=O)c1cc(NC(=O)[C@H]2O[C@@H](n3cnc4c(N)ncnc43)[C@H](O)[C@@H]2O)ccc1F	Not_active		
COC(=O)c1ccc(C(=O)NC[C@H]2O[C@@H](n3cnc4c(N)ncnc43)[C@H](O)[C@@H]2O)cc1	Not_active		
Cc1ccc(NC(=O)[C@H]2O[C@@H](n3cnc4c(N)ncnc43)[C@H](O)[C@@H]2O)cc1O	Not_active		
Cc1cc(=O)oc2cc(NC(=O)[C@H]3O[C@@H](n4cc(C#Cc5cncnc5)c5c(N)ncnc54)[C@H](O)[C@@H]3O)ccc12		inactive	inactive
Cc1cc(=O)[nH]c2cc(NC(=O)[C@H]3O[C@@H](n4cnc5c(N)ncnc54)[C@H](O)[C@@H]3O)ccc12		inactive	inactive
Nc1ncnc2c1ncn2[C@@H]1O[C@H](C(=O)Nc2ccc(-c3ccoc3)cc2)[C@@H](O)[C@H]1O	Not_active		
Cc1cc(=O)[nH]c2cc(NC(=O)[C@H]3O[C@@H](n4cc(C#Cc5cncnc5)c5c(N)ncnc54)[C@H](O)[C@@H]3O)ccc12		inactive	inactive
Nc1ncnc2c1ncn2[C@@H]1O[C@H](C(=O)Nc2ccc(-c3ccsc3)cc2)[C@@H](O)[C@H]1O	Not_active		
Cc1cc(=O)[nH]c2cc(N(C)C(=O)[C@H]3O[C@@H](n4cc(C#Cc5cncnc5)c5c(N)ncnc54)[C@H](O)[C@@H]3O)ccc12		inactive	inactive
Nc1ncnc2c1ncn2[C@@H]1O[C@H](C(=O)Nc2ccc(-c3cn[nH]c3)cc2)[C@@H](O)[C@H]1O	Not_active		
Cc1cc(=O)oc2cc(NC(=O)[C@H]3O[C@@H](n4cnc5c(N)ncnc54)[C@H](O)[C@@H]3O)ccc12		inactive	inactive
NC(=O)c1ccc(NC(=O)[C@H]2O[C@@H](n3cnc4c(N)ncnc43)[C@H](O)[C@@H]2O)cc1	Not_active		
Cc1noc(C)c1-c1ccc(NC(=O)[C@H]2O[C@@H](n3cnc4c(N)ncnc43)[C@H](O)[C@@H]2O)cc1	Not_active		
COc1cccc(NC(=O)[C@H]2O[C@@H](n3cnc4c(N)ncnc43)[C@H](O)[C@@H]2O)c1	Not_active		
Nc1ncnc2c1ncn2[C@@H]1O[C@H](CNC(=O)c2ccc3c(c2)OCCO3)[C@@H](O)[C@H]1O	Not_active		
